# What was measured:
# Pseudomonas aeruginosa = test: Anti-Swarming activity against Pseudomonas aeruginosa PA01 at 100 ppm after 72 hrs; type: functional
# P388 = test: Cytotoxicity against mouse P388 cells after 72 hrs by MTT assay; type: functional, cell-based; settings: P388, 72 h
# Plasmodium falciparum = test: Antimalarial activity against drug-sensitive Plasmodium falciparum NF54 infected in human erythrocytes after 48 hrs by Liquid scintillation counter; type: functional, organism-based; settings: NF54, 48 h
SMILES,Activity (Pseudomonas aeruginosa) [%],IC50 (P388) [nM],IC50 (Plasmodium falciparum) [nM]
CC[C@@H](C)[C@@H]1NC(=O)CN(C)C(=O)[C@@H](Cc2ccccc2)N(C)C(=O)[C@H](C)NC(=O)[C@@H]([C@@H](C)CC)OC(=O)/C(C)=C/C[C@H](O)[C@H](C)[C@H]([C@@H](C)CC)OC(=O)[C@H](C)N(C)C1=O [LAGUNAMIDE A],62,6.4,190
C/C=C(\C)[C@@H]1OC(=O)[C@H](C)N(C)C(=O)[C@H]([C@H](C)CC)NC(=O)CN(C)C(=O)[C@@H](Cc2ccccc2)N(C)C(=O)[C@H](C)NC(=O)[C@@H]([C@@H](C)CC)OC(=O)/C(C)=C/C[C@H](O)[C@@H]1C [LAGUNAMIDE B],56,20.5,910

# Source: ChEMBL document CHEMBL1641386, “Lagunamides A and B: cytotoxic and antimalarial cyclodepsipeptides from the marine cyanobacterium Lyngbya majuscula” (J Nat Prod, 2010)
